Patent publication US20080248112A1 (priority 2007, published 2008)
Entries after “also recorded” stand apart in the source; their conditions may differ.

System: glycosylated hemoglobin level (HbAlC)
Test: Clinical study of long term administration of ranolazine: HbA1C in patients having coronary disease
Type: in vivo, human
Excerpt: Baseline is in-hospital visit prior to hospitalization.

Structure (SMILES): COc1ccccc1OCC(O)CN1CCN(CC(=O)Nc2c(C)cccc2C)CC1 (racemic) [Ranolazine, (±)-N-(2,6-dimethylphenyl)-4-[2-hydroxy-3-(2-methoxyphenoxy)-propyl]-1-piperazineacetamide]
- Number of patients with HbA1c ≧7% (Diabetes at enrollment, n = 1098, Month 16): 63
- Number of patients with HbA1c ≧7% (No Diabetes at enrollment, n = 2170, Final Visit): 92
- Number of patients with HbA1c ≧7% (No Diabetes at enrollment, n = 2170, Month 4): 78
- Number of patients with HbA1c ≧7% (No Diabetes at enrollment, n = 2170, Month 8): 72
- Number of patients with HbA1c ≧7% (No Diabetes at enrollment, n = 2170, Month 16): 21
- Effect on HbAlc levels (all patients treated, FIGS. 1 and 2): HbAlc lowering effect on all patients treated; also recorded: significantly lowers serum HbAlC levels
- Effect on HbAlc levels (diabetic patients, FIG. 2): reduction in the amount of HbAlC levels
- Effect on HbAlc levels (non-diabetic patients, FIG. 2): reduction in the amount of HbAlC levels
